From patent US20260166040A1 (AMGEN INC., priority 2022, published 2026)
Values belong to the compound of their own block, whether it stands above or below them.

How the values were obtained:
[1] = Phase I crossover study: plasma pharmacokinetics of sotorasib coadministered with rosuvastatin; format: in vivo, human; conditions: 960 mg sotorasib + 10 mg rosuvastatin, (range)
Description: Times of all PK samples were recorded to the nearest minute.

[2] = Phase I crossover study: safety and tolerability (treatment-emergent adverse events); format: in vivo, human; conditions: for Treatment-emergent adverse events: healthy subjects; for Safety and tolerability: healthy male and female subjects
[3] = target: T1, BCRP transporter (Homo sapiens, UniProt Q9UNQ0); assay: In vitro BCRP transporter inhibition; format: in vitro ADME
T1 sequence (Q9UNQ0 1-655): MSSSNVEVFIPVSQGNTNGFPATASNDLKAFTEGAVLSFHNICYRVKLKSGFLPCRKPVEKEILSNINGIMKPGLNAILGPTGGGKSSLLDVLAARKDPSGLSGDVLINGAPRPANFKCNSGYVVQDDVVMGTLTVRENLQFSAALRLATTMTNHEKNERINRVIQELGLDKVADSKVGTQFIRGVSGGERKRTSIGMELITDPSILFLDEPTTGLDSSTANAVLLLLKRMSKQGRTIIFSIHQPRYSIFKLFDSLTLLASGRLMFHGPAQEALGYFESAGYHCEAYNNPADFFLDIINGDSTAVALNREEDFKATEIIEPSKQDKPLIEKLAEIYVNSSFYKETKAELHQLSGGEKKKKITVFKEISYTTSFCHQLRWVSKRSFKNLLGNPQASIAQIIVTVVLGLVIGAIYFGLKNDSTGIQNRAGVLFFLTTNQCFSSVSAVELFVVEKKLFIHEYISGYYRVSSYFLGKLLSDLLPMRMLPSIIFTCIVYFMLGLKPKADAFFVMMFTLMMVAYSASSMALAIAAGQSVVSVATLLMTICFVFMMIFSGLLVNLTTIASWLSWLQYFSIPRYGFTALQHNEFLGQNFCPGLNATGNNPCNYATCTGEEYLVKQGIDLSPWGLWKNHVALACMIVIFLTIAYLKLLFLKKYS

[4] = system: phosphorylation of extracellular signal-regulated kinase (ERK); conditions: preclinical studies; cited from earlier work
[5] = clinical; conditions: human, in vivo, 10 mg
Description: On Day 1, rosuvastatin was administered as a single 10 mg dose (1×10 mg tablet).
All subjects fasted overnight (at least 10 hours) and refrained from consuming water for 1 hour prior to dosing. Subjects refrained from consuming water until 2 hours postdose, excluding the amount of water consumed at dosing, and fasted until 4 hours postdose. At all other times during the study, subjects may have consumed water ad libitum.
Blood samples for determination of rosuvastatin plasma concentrations and PK parameters were collected at hour 0 and at hours 0.5, 1, 2, 3, 4, 5, 6, 8, 10, 12, 24, 36, 48, 72, 96, and 120 hours postdose following administration of rosuvastatin on Days 1 and 6.
Pharmacokinetic analysis was carried out using actual dose administered (mg) and actual postdose blood sampling times. When an actual time was not recorded, it was set to missing and excluded from PK analysis and statistics with sponsor approval.
The parameters Cmax, time of the last quantifiable plasma concentration (tlast), and tmax were obtained directly from the concentration-time profiles. For multiple peaks, the highest postdose concentration was reported as Cmax. In the case that multiple peaks were of equal magnitude, the earliest tmax was reported.

[6] = cited from earlier work
[7] = system: plasma proteins, mostly albumin; conditions: reversible, independent of plasma concentrations; cited from earlier work
[8] = incidence !2%; cited from earlier work

SMILES: C=CC(=O)N1CCN(c2nc(=O)n(-c3c(C)ccnc3C(C)C)c3nc(-c4c(O)cccc4F)c(F)cc23)[C@@H](C)C1 (atropisomer, axis not shown) [sotorasib]
tlast [1]: 48.0 (24.0-48.0) h | Treatment-emergent adverse events ([2]; 960 mg sotorasib coadministered with 10 mg rosuvastatin): No treatment-emergent adverse events | Safety and tolerability ([2]; rosuvastatin 10 mg in combination with sotorasib 960 mg, single oral doses): safe and well tolerated | BCRP inhibition [3]: inhibitor of BCRP transporter in vitro | Inhibition of ERK phosphorylation [4]: inhibited nearly all detectable phosphorylation

AUCinf ([5]; both): 36.2 (60.1) h*ng/mL | AUCinf GLSM ([5]; both): 36.2 ng·h/mL | AUClast GLSM ([5]; both): 33.2 ng·h/mL | Cmax ([5]; both): 3.80 (57.8) ng/mL | Cmax GLSM ([5]; both): 3.80 ng/mL | half-life ([5]; both): 13.8 h | tmax ([5]; both): 3 h | AUC(0-t) ([5]; both, po): 33.2 ng·h/mL | CL/F [5]: 276 (60.1) L/h
SMILES: CC(C)c1nc(N(C)S(C)(=O)=O)nc(-c2ccc(F)cc2)c1/C=C/[C@@H](O)C[C@@H](O)CC(=O)O [rosuvastatin]
Treatment-emergent adverse events ([2]; 10 mg rosuvastatin alone): No treatment-emergent adverse events | Safety and tolerability ([2]; single oral dose rosuvastatin 10 mg alone): safe and well tolerated | Elimination half-life ([6]; human, in vivo): approximately 19 hours | Excreted in the feces (rosuvastatin and its metabolites) ([6]; human, in vivo): 90% | Radiolabeled dose recovered as metabolite ([6]; human, in vivo): approximately 10% | Cmax and AUC dose dependence ([6]; oral administration): increased in approximate proportion to dose | Absolute bioavailability ([6]; oral): approximately 20% | Bound to plasma proteins [7]: 88% | Most commonly reported adverse reactions [8]: headache, myalgia, abdominal pain, asthenia, and nausea
